These compounds were tested on pulmonary artery of the guinea-pig (assay: relaxation of potassium-depolarised pulmonary artery strips of the guinea-pig (CaCl2-induced contraction)). Conditions: 40 mmol/l potassium, 0.5 mmol/l CaCl2; cumulative addition; average value of 4 to 6 vessel strips; read-out: IC50 (concentration which inhibits the contraction by 50%).
Procedure: In this method, spiral strips of the pulmonary artery of the guinea-pig are depolarised with 40 mmol/l of potassium after equiliberation in calcium-free Tyrode solution. An addition of 0.5 mmol/l of CaCl2 then induces a contraction.
The relaxing action of the test substance is determined by cumulative addition in 1/2 log 10 graded concentrations.

Row | IC50 [nM] | Compound
1 | 400 | N-(3-Diethylaminopropyl)-3-phenyl-1,2,5-oxadiazole-4-carboxamide-2-oxide [Compound 6a]
2 | 5000 | N-Methyl-3-(3,4-dimethoxyphenyl)-1,2,5-oxadiazole-4-carboxamide-2-oxide [Compound 4a]
3 | 700 | N-Butyl-3-phenyl-1,2,5-oxadiazole-4-carboxamide-2-oxide [Compound 5a]

Same assay, conditions: Cavia porcellus; 40 mmol/l potassium, 0.5 mmol/l CaCl2; cumulative addition; average value of 4 to 6 vessel strips; read-out: IC50 (concentration which inhibits the contraction by 50%)

Row | IC50 [nM] | Compound
4 | 500 | O=C(NCc1ccncc1)c1c(-c2ccccc2)no[n+]1[O-] [Compound 14a]
5 | 300000 | CCOC(=O)[N-]c1cn(N2CCOCC2)n[o+]1 [Molsidomine, reference compound]
6 | 1000 | CNC(=O)c1c(-c2ccccc2)no[n+]1[O-] [Compound 1a, N-Methyl-4-phenyl-1,2,5-oxadiazole-3-carboxamide-2-oxide]
7 | 1000 | O=C(NCc1ccncc1)c1no[n+]([O-])c1-c1ccccc1 [Compound 14b]
8 | 2000 | O=C(NCc1cccnc1)c1no[n+]([O-])c1-c1ccccc1 [Compound 7b]
9 | 300 | O=C(NCc1cccnc1)c1c(-c2ccccc2)no[n+]1[O-] [Compound 7a]
10 | 2000 | CC(C)N(CCNC(=O)c1no[n+]([O-])c1-c1ccccc1)C(C)C [Compound 12b]
11 | 300 | COc1ccc(-c2no[n+]([O-])c2C(=O)NCCN(C(C)C)C(C)C)cc1OC [Compound 13a]
12 | 1000 | NC(=O)CNC(=O)c1c(-c2ccccc2)no[n+]1[O-] [Compound 10a]

Row | Compound | IC50 [nM]
13 | O=[N+]([O-])OC1COC2C(O)COC12 (stereo not shown) [Isosorbide-5-mononitrate, reference compound] | > 100000
